Results: EP0073143B1, “Novel complex amido and imido derivatives of carboxyalkyl peptides and thioethers and ethers of peptides” (priority 1981, dated 1983)

What was measured:
[1] = biological target: T1, human plasma angiotensin converting enzyme (Homo sapiens, UniProt P12821); assay: In vitro assay of inhibition of angiotensin converting enzyme; format: biochemical; conditions: [3H]benzoyl-Gly-His-Leu 80 nM, 37°C, 15 minutes; order of magnitude only; read-out: I50
T1 construct: partially-purified human plasma angiotensin converting enzyme; from tissue; host or cells: human plasma
Experimental: To this was added 100 microliters of buffered substrate [S], [^3H]benzoyl-[…], 80 nM (25 Ci/mmole). The reaction was started by adding 100 microliters of partially-purified human plasma angiotensin converting enzyme, or 100 microliters of buffer alone. The concentration of enzyme [E] used was that required to hydrolyze 8-12% of substrate when incubated at 37°C for 15 minutes. The scintillation vials and their contents were incubated at 37°C for 15 minutes, and the reactions were stopped by adding 200 microliters of 0.5M HCI to each vial. The radioactive reaction product, [^3H]benzoyl-Gly(hippuric acid), was separated from unhydrolyzed substrate by adding and mixing (by inversion) 3 ml of Ventrex Cocktail No. 1 (Ventrex Laboratories, Inc., Portland, Maine), a fluid disclosed in copending U.S. patent application No. 184,653, filed September 6, 1980. Extractable ^3H was quantified by liquid scintillation counting. Substrate, in c.p.m., was quantified by scintillation counting of a vial containing 100 μl of buffered substrate in 5 ml of RIAfluor (New England Nuclear). The reaction mixture containing all constituents except for inhibitor was termed the control (C). The reaction mixture lacking enzyme and inhibitor was called the blank (B). Reaction mixtures containing inhibitor (varied over the range of 10^-4-10^-12M) were called the test (T) reactions. Under the conditions of this assay, the reaction obeys first order enzyme kinetics, thus the concentration of inhibitor required to inhibit the rate of hydrolysis by half (150) approximate the Ki value. The results were estimated by use of the formula: [formula] where C = control c.p.m.; B = blank c.p.m.; [S] = substrate c.p.m. The factor 100 converts fractional substrate utilization into percentage utilization, and 1/15 minute connects to percentage substrate utilization/minute. Thus, [E] is enzyme activity in percentage substrate utilization/minute. By substituting T for C, hydrolysis rates are computed for the test reaction mixtures. By comparing a given test rate against the control rate, the degree of inhibition can be computed.

[2] = Loss of activity of an aqueous solution on standing; format: physicochemical; conditions: fresh aqueous solution 1 mg per ml, pH of about 8, standing for as little as 30 minutes
man = conditions: 13 patients treated, all biopsies; Hoorntje et al.; cited from earlier work
[3] = test system: effects of 400 ng/kg of angiotensin I on mean arterial blood pressure; assay: Intravenous effectiveness: effect on the pressor response to angiotensin I in anesthetized rats; format: in vivo; conditions: de-iodo analog compared with the iodo compound
Experimental: Rats (190-290 g body weight) were fasted overnight and then anesthetized with intraperitoneal pentobarbital, 50-60 mg/kg. Tracheostomy was performed and the animals were ventilated mechanically. A cannula was inserted into a femoral vein for injection of angiotensin I, and a second cannula was inserted into a common carotid artery for direct measurement of arterial blood pressure. Heparin, 1,000 units, was injected via the femoral vein to prevent coagulation. Blood pressure was measured with a pressure transducer connected to a polygraph. The rats were injected with […] of angiotensin I in 20 µl of 0.9 g% NaCI, an amount of angiotensin I sufficient to raise mean arterial blood pressure by approximately 48 mm Hg.
After the responsiveness of a given rat to angiotensin I was established, the named compound at 0.5 micromole/kg (drug dissolved in 15 microliters of 0.9% NaCl) was given intravenously. At timed intervals, the effects of 400 ng/kg of angiotensin I on mean arterial blood pressure were tested. Results are shown below:
Experiments were carried out using rats according to Example 32.

T1 sequence (P12821 30-1232 limits assumed): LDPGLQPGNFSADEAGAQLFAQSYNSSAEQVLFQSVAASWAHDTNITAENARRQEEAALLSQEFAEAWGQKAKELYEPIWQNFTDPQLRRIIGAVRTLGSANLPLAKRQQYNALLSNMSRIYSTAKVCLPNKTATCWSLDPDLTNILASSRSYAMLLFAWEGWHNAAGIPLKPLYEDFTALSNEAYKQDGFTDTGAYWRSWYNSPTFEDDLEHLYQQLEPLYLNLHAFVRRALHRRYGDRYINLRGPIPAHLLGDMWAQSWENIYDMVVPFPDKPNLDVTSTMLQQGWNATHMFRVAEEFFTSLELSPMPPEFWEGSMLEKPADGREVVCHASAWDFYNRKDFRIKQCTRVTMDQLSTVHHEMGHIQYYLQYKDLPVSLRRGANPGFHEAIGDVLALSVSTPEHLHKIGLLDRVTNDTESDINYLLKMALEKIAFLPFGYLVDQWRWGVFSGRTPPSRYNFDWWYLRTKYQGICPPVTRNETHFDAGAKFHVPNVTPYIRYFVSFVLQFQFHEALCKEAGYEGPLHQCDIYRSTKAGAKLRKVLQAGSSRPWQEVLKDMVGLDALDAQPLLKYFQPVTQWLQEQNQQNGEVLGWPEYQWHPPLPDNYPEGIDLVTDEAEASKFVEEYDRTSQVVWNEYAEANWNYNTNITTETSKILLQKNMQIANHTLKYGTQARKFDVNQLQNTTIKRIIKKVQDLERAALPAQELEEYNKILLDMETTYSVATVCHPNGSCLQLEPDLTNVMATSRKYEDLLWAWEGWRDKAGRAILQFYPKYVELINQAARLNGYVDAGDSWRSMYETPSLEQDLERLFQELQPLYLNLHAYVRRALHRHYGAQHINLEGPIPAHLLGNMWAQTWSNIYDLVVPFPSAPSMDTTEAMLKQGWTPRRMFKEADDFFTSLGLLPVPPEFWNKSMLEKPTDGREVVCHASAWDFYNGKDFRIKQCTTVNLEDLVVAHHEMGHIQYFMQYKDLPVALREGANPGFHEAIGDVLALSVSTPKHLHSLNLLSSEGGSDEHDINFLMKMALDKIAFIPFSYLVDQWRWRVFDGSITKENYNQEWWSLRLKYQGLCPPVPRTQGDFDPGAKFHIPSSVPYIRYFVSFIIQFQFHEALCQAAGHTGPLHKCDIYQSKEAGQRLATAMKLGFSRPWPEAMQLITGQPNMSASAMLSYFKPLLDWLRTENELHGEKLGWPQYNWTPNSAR

| SMILES | IC50 [1] | activity of aqueous solution upon standing [2] | renal biopsies (man) | increase of intravenous effectiveness on removal of iodine [3] |
| --- | --- | --- | --- | --- |
| CC(N[C@@H](CCC(=O)Nc1ccccc1)C(=O)O)C(=O)N1CCC[C@H]1C(=O)O (stereo partly drawn) [N-[L-1-carboxy-3-(carbo-anilide)propyl]-Alanyl-L-Proline] | ~1 nM |  |  |  |
| C[C@H](CS)C(=O)N1CCC[C@H]1C(=O)O [SQ14225, D-3-mercapto-2-methylpropanoyl-L-proline] |  | substantially less active | evidence of immune complex deposition along the glomerular basement membranes |  |
| CC(N[C@@H](CCC(=O)Nc1ccc(I)cc1)C(=O)O)C(=O)N1CCC[C@H]1C(=O)O (stereo partly drawn) [N-[L-1-carboxy-3-(carbo-4-iodo-anilide)propyl] Alanyl-L-Proline] | ~1 nM |  |  | three-fold |
| CC(N[C@@H](CC(=O)N1CCCC1)C(=O)O)C(=O)N1CCC[C@H]1C(=O)O (stereo partly drawn) [N-[L-1-carboxy-2-(carbopyrrolide)ethyl]-Alanyl-L-Proline] | ~100 nM |  |  |  |
